Experimental data: patent publication US11925607B2, “Ketamine composition for use in a method of treatment of depression by pulmonary administration” (Celon Pharma S.A., priority 2018, dated 2024)

Tests used:
[1] = test system: patients with treatment-resistant depression; conditions: cited from earlier work
[2] = cited from earlier work
[3] = cited from earlier work; remark: listed apart in the source
[4] = nebulized esketamine hydrochloride saline solution; cited from earlier work
[5] = Pharmacokinetics of inhaled esketamine dry powder in healthy volunteers, clinical study; type: in vivo, human; conditions: pulmonary administration, overall conclusion
Method: Esketamine hydrochloride dry powder formulation of Example 2 was administered to healthy volunteers pulmonary, i.e. directly to the lungs using dry powder inhaler (DPI) (by self-administration), under supervision of medical personnel.
One puff of dry powder formulation contained 4.6 mg of esketamine hydrochloride, corresponding to 4 mg of esketamine free base and excipients 18.22 mg of lactose monohydrate and 0.18 mg of magnesium stearate.
A single dose was an inhalation events consisting of 1 to 6 puffs, i.e. 4 to 24 mg of esketamine free base nominal dose.
In part A of the study, designed as a one-centre single ascending dose, the medicine was delivered in a single dose once in one day (up to 6 consecutive puffs) to 18 healthy volunteer subjects. Subjects were divided into 6 cohorts, cohorts receiving 1, 2, 3, 4, 5 or 6 puffs in a single dose (inhalation event), respectively. Collection of blood samples for determination of esketamine and esnorketamine metabolite concentration and calculation of pharmacokinetic parameters was performed for 24 hours following the start of the test in the administration day. The aim of the study was to determine the amount of puffs in an inhalation event needed to obtain plasma concentration similar to that sufficient to achieve antidepressant effect as for 0.20 mg/kg 40 minutes intravenous infusion. […]

[6] = test system: healthy volunteers; assay: Adverse effects monitoring in clinical study, assessed by a psychiatrist; type: in vivo, human; conditions: pulmonary administration
Method: Both in Part A and Part B of the study the adverse effects were monitored and assessed by a psychiatrist. The summary of the adverse effects is presented in FIG. 10 (Part A) and FIG. 11 (Part B). […] Psychomimetic effects were transient, lasting up to 30 minutes following administration. […] In Part C of the study adverse effects were monitored and assessed by a psychiatrist after each sequence of administration, i.e. on Day 1, Day 4, Day 8 and Day 11. The summary of adverse effects for Part C is presented on FIGS. 12A to 12D for Day 1, Day 4, Day 8 and Day 11, respectively. […] Psychomimetic effects were transient, lasting up to 30 minutes following administration.

[7] = 0.20 mg/kg 40 minutes intravenous infusion, predicted from literature data; cited from earlier work
[8] = test system: NMDA receptor; conditions: cited from earlier work
[9] = after intravenous infusion of racemic ketamine
[10] = after oral administration of ketamine

Structure (SMILES): CNC1(c2ccccc2Cl)CCCCC1=O (racemic) [ketamine]
- fraction of patients with treatment-resistant depression responsive ([1]; human, in vivo): about ⅔
- half-period of concentration fall ([2]; after intravenous infusion 0.5 mg/kg for 40 minutes): below 2 hours
- systemic concentration of parent drug ([2]; intravenous infusion 0.5 mg/kg for 40 minutes, maintained about 40 minutes): about 200 ng/ml
- bioavailability ([3]; orally administered): 16-20%
- inhaled bioavailability [4]: reduced

Structure (SMILES): CN[C@]1(c2ccccc2Cl)CCCCC1=O [esketamine]
- Plasma concentration profile [5]: quite smooth, consistent with a target profile
- safety of plasma concentration profile [6]: safe for chronic administration
- antidepressant effect ([1]; TRD patients, 40-minute i.v. infusion of 0.20 mg/kg or 0.40 mg/kg (Singh et al.)): rapid onset of robust antidepressant effects
- concentration at 40 min of infusion [7]: 0.06 to 0.1 µg/mL

Structure (SMILES): NC1(c2ccccc2Cl)CCCCC1=O (centres unmarked) [norketamine]
- activity on NMDA receptor relative to ketamine [8]: many times less active than ketamine
- maximum concentration as % of ketamine concentration [2, 9]: 10-20%
- percentage of AUC norketamine to ketamine [2, 9]: 20-40%
- AUC as % of ketamine [3, 10]: exceeding 1000%
- level as % of ketamine level [3, 10]: 500-1000%
